The values that follow come from article PMC7394005, “Assessing the Selectivity of FXR, LXRs, CAR, and RORγ Pharmaceutical Ligands With Reporter Cell Lines” (Frontiers in Pharmacology, 2020).

By IC50 is commonly meant the concentration that inhibits the measured activity by half.

One data set concerns HG5LN parental cell line. As to the kind of experiment: Non-specific modulation of luciferase expression in HG5LN parental cell line. It counts as cell-based, human. The note with it: HG5LN parental cells lacking Gal4-NRs; Figure S2. On the procedure:
(§1) HG5LN and HG5LN PXR cells have already been described ([Delfosse et al., 2015]). To characterize the specificity of chemicals for human FXR, LXRα, LXRβ, CAR and RORγ, we established in a similar manner HG5LN FXR, LXRα, LXRβ, CAR WT, CAR (APYLT) and RORγ reporter cell lines. HG5LN are HeLa cells stably transfected by the (GAL4RE)5-βGlob-Luc-SVNeo plasmid ([Seimandi et al., 2005]). These cells were stably transfected by pSG5-GAL4 (DBD)-NRs (LBD)-puromycin plasmid and selected in presence of 0.5 µg/ml puromycin. […] From each HG5LN NR cells, 5 to 10 clones were chosen for their ligand inducibility of luciferase expression. We noted that the basal activity in absence of ligand strongly differed among NRs. FXR, LXRs, and CAR APYLT had the lowest basal activities, whereas CAR and RORγ had the highest. The most inducible clones were expanded and rechecked for inducibility and aliquots were frozen at different passages. One clone per receptor was maintained in culture and used for ligand screening. HG5LN cells were cultured in Dulbecco’s modified Eagle’s medium (DMEM): Nutrient Mixture F-12 (DMEM/F-12) containing phenol red and 1 g/l glucose and supplemented with 5% fetal bovine serum, 100 units/ml of penicillin, 100 µg/ml of streptomycin and 1 mg/ml geneticin, in 5% CO2 humidified atmosphere at 37°C. Stably transfected cell lines derived from HG5LN cells were cultured in the same culture medium supplemented with 0.5 µg/ml puromycin.
(§2) Individual reporter cell lines were seeded at a density of 40,000 cells per well in 96-well white opaque tissue culture plates (Greiner CellStar) in Dulbecco’s Modified Eagle Medium: Nutrient Mixture F-12 (DMEM/F-12) without phenol red and 1 g/l glucose and supplemented with 5% stripped fetal bovine serum, 100 units/ml of penicillin, 100 µg/ml of streptomycin (test medium). Chemicals to be tested were added 24h later, and cells were incubated at 37°C for 16h. Experiments were performed in quadruplicates. At the end of the incubation period, culture medium was replaced with test medium containing 0.3 mM luciferin solution. Luciferase activity was measured for 2s in intact living cells after 10 min stabilization using a Micro Beta Wallac luminometer (PerkinElmer). EC50 values were calculated using GraphPad Prism (GraphPad Software Inc).
To evaluate the FXR, LXRα, LXRβ, PXR, CAR, and RORγ specificity of pharmaceutical chemicals, we established HG5LN reporter cell lines expressing human FXR, LXRα, LXRβ, CAR, CAR (+ APYLT), and RORγ. Then, we tested the agonistic/antagonistic potential of 22 commercially available pharmaceutical compounds ( Figure S1 ) on these cells and in the previously established PXR cell line ([Delfosse et al., 2015]). The 22 chemicals were first tested for non-specific modulation of luciferase expression on the HG5LN parental cell line, which contains the same reporter gene as HG5LN-GAL4-NRs cells, but lacks of Gal4-NRs. […] The basal (in absence of ligand) and the maximal (in presence of NR-specific full agonist) activities of HG5LN and the different HG5LN GAL4-NRs were measured. […] The expression of FXR induced the slight repression of basal transcription, while both LXRs and PXR had no effect, or just slightly activated the basal transcription ( Figure 1 ). Consequently, the baseline activities were normalized as percentage of maximal activity mediated by full agonists, as follows: 6% for FXR, 8% for LXRα, 9% for LXRβ, 19% for PXR ( Table 1 ). On the contrary, the basal activity was increased by the expression of CAR and RORγ. Due to the inherent constitutive activity, we determined this activity equal to 100% as the specific agonists were not able to reveal their transactivation potential alone, but they were able to reverse the inhibition caused by antagonists/reverse agonists. To characterize easily CAR agonists, we used cell line expressing a variant of CAR (CAR + APYLT) with reduced basal ([Auerbach et al., 2003]). […]
Consider `Clc1ccc(-c2nc3sccn3c2/C=N/OCc2ccc(Cl)c(Cl)c2)cc1` [CITCO], for which the “Nonspecific activation of luciferase expression in HG5LN parental cell line” value is recorded as “significant nonspecific activation”.
Regarding `Clc1ccccc1C(c1ccccc1)(c1ccccc1)n1ccnc1` [Clotrimazole, clotrimazole], the “Toxicity (non-specific decrease of luciferase expression) in HG5LN parental cell line” value is reported as “most toxic”.
As to `COc1cccc(Cn2cc(C(=O)Nc3ccc(C)c(S(=O)(=O)N4CCOCC4)c3)c(-c3ccc(C)cc3)n2)c1` [DY268], the “Nonspecific activation of luciferase expression in HG5LN parental cell line” value is on record as “significant nonspecific activation”.
The same measure, in the same setting: next, `Cc1cc(C)c(S(=O)(=O)N(Cc2ccc(-c3cccc(S(C)(=O)=O)c3)cc2)Cc2ccc(C(F)(F)F)o2)c(C)c1` [GSK2033]: “significant nonspecific activation”.
On the same count and under the same terms, the value for `CC(C)c1onc(-c2c(Cl)cccc2Cl)c1COc1ccc(/C=C/c2cccc(C(=O)O)c2)c(Cl)c1` [GW4064] was “significant nonspecific activation”; that for `Fc1ccc(-c2c3cccc(C(F)(F)F)c3nn2Cc2ccc(F)cc2Cl)cc1` [WAY252623] was “significant nonspecific activation”.
In the case of SPA70, the “Toxicity (non-specific decrease of luciferase expression) in HG5LN parental cell line” value was “most toxic”.

The next data set addresses T1, human PXR (Homo sapiens, UniProt O75469).
T1 construct: The GAL4-NR chimeric cell lines provide uniform cellular model differing just in receptor LBDs; expressed in transfected cells; host or cells: HG5LN PXR (HeLa-derived; described in Delfosse et al., 2015)
T1 sequence (O75469 146-433 limits assumed): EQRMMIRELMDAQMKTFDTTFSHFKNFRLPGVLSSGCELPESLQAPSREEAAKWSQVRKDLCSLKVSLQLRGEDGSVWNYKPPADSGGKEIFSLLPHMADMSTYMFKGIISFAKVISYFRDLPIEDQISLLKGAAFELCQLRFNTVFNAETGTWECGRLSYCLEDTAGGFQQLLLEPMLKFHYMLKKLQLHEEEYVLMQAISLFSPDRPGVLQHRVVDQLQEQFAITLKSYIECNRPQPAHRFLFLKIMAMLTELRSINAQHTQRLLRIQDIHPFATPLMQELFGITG
As to the kind of experiment: HG5LN PXR reporter cell line, antagonist mode in presence of SR12813. It counts as cell-based. The note with it: read-out: PXR (SR12813 300 nM) IC50; in presence of SR12813 300 nM; NE = No effect. On the procedure:
as §1, with “To” for “HG5LN and HG5LN PXR cells have already been described ([Delfosse et al., 2015]). To”, “HG5LN are HeLa cells stably transfected by the (GAL4RE)5-βGlob-Luc-SVNeo plasmid ([Seimandi et al., 2005]).” left out, “We noted that the basal activity in absence of ligand strongly differed among NRs. FXR, LXRs, and CAR APYLT had the lowest basal activities, whereas CAR and RORγ had the highest.” left out
as §2
Chemicals tested for agonism on FXR, LXRs, CAR (+ APYLT), PXR, and antagonism on CAR and RORγ were tested alone, without addition of any other ligand.
In the transactivation assay, each compound was tested at various concentrations in three independent experiments at least. For each experiment, tests were performed in quadruplicates for each concentration, and data are expressed by means values with standard deviations. Individual agonist dose–response curves, in the absence and presence of antagonist, were fitted using the sigmoid dose-response function of a graphics and statistics software program (GraphPad Prism, version 5.0). EC50 (effective concentration for half-maximal luciferase activity) and IC50 (half-maximal inhibitory concentration) values were calculated from equations used to fit the data in this graphic software. Transactivation data are presented as EC50 and IC50 values for each compound tested. To analyze significances, we compared individual compound treatments with controls using one-way analysis of variance (ANOVA) with the help of GraphPad Prism software.
On to `COc1cccc(Cn2cc(C(=O)Nc3ccc(C)c(S(=O)(=O)N4CCOCC4)c3)c(-c3ccc(C)cc3)n2)c1` [DY268], for which the IC50 is greater than 10 µM.
Same read-out and setting: the value for `COC(=O)/C=C/c1cccc(N(Cc2ccc(-c3ccc(N(C)C)cc3)cc2)C(=O)C2CCCCC2)c1` [Feraxamine] was greater than 10 µM; that for `CC(C)c1onc(-c2c(Cl)cccc2Cl)c1COc1ccc(/C=C/c2cccc(C(=O)O)c2)c(Cl)c1` [GW4064] was greater than 10 µM.
On the same count and under the same terms, next, `Cc1oc2ccccc2c1CNC(=O)NCc1cccs1` [S07662]: greater than 10 µM; `CC(=O)Nc1nc(C)c(S(=O)(=O)Nc2ccc(C(O)(C(F)(F)F)C(F)(F)F)cc2)s1` [SR1001]: greater than 10 µM.
Turning to `O=C(Nc1ccc(C(O)(C(F)(F)F)C(F)(F)F)cc1)c1ccc(C(F)(F)F)cc1` [SR1078], the IC50 was greater than 10 µM.
